Measured values: patent publication US20100216795A1, “TNIK INHIBITOR AND THE USE” (priority 2008, published 2010)

System: HCT-116 cells
Experiment: HCT-116 xenograft growth after intratumoral siRNA
Assay type: in vivo, BALB/c nu/nu nude mice
Settings: HCT-116 tumours; for excised tumours versus not treated, atelocollagen only or control RNA: 18 days after the injection of siRNA; for volume of xenografts: single injection of siRNA with atelocollagen into the tumour, monitored 18 days
Description: We next examined the effects of TNIK on the growth of human colon cancer cells in vivo (FIG. 2). HCT-116 cells were implanted in the flank of immunodeficient mice. One week after the inoculation, siRNA against TNIK (12 or 13) mixed with atelocollagen (Takeshita, F. et al. Efficient delivery of small interfering RNA to bone-metastatic tumors by using atelocollagen in vivo. Proc Natl Acad Sci USA 102, 12177 (2005)) was injected directly into the tumours (224.5±8.9 mm^3 in size). Three days after the siRNA injection, some tumours were excised and the silencing of TNIK mRNA was confirmed by real-time PCR (FIG. 2b). The volume of xenografts was monitored for 18 days after siRNA injection (FIG. 2a). […] We observed similar regression of established tumours after a single injection of siRNA against TNIK in two other colorectal cancer cell lines, DLD1 and WiDr (FIGS. 3 and 4).
a, HCT-116 cells were inoculated into BALB/c nu/nu nude mice subcutaneously. The developed tumours were not treated, or treated with only atelocollagen, control RNA (X or IX) or siRNA against TNIK (12 or 13). The volume of tumours (n=8 per group) was monitored as indicated. #, P<0.001 (Mann-Whitney U-test); Bars, SE; N.S., not significant. b, mRNA expression of TNIK in tumours injected with siRNA (n=3 per group). c, d, Representative appearance of mice and excised tumours 18 days after the injection of siRNA. Columns indicate the average weight of excised tumours (n=8 per group). $, P<0.005 (Mann-Whitney U-test); Bars, SE.
5×10^6 HCT-116, DLD1 or WiDr cells suspended in 0.1 ml of PBS were subcutaneously inoculated into the flanks of 5-week-old female BALB/c nu/nu nude mice (SLC, Tokyo, Japan). One week later the developed tumours were treated with siRNA together with atelocollagen (AteloGene; KOKEN, Tokyo, Japan) (Takeshita, F. et al. Efficient delivery of small interfering RNA to bone-metastatic tumors by using atelocollagen in vivo. Proc Natl Acad Sci USA 102, 12177 (2005)). The final concentration of siRNA was 30 μM and that of atelocollagen was 0.5%. A 0.2-ml volume of siRNA solution was injected directly into each tumour. Tumour volume was determined as V=A×[…], where A and B represent the largest and smallest dimensions (Bergers, G et al. Effects of angiogenesis inhibitors on multistage carcinogenesis in mice. Science 284, 808 (1999)).

Substance | excised tumours versus not treated, atelocollagen only or control RNA | volume of xenografts
siRNA against TNIK (12): small interfering RNA against TNIK, sense 5′-CGACAUACCCAGACUGAUAUU-3′, synthesized by Dharmacon (antisense UAUCAGUCUGGGUAUGUCGUU; listed as RNA, chemistry not given here) | significantly smaller | regressed almost completely
siRNA against TNIK (13): small interfering RNA against TNIK, sense 5′-GACCGAAGCUCUUGGUUACUU-3′, synthesized by Dharmacon (antisense GUAACCAAGAGCUUCGGUCUU; listed as RNA, chemistry not given here) | significantly smaller | regressed almost completely
